The values below come from ChEMBL document CHEMBL1201862, “PubChem BioAssay data set” (2004).

The target in test [1] is ATP-dependent translocase ABCB1 (Homo sapiens, UniProt P08183). Put plainly: P-gp JC-1 efflux blockers potency – Jurkat-DNR cells, flow cytometry, follow-up, dose response (AID 489002). The test is classed as functional.
Test [2] can be described thus: PAX8-dependent cell viability loss – plate reader, dry powder, dose response (AID 743049). Type of test: functional, cell-based.
Test [3] is described as follows: PAX5 cellular inhibition readout – cell-based, plate reader, dry powder samples, selectivity assay for PAX8 inhibitor project, dose response (AID 743047).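 Note: HEK293 cells carrying a Pax5 driven CD19 promoter luciferase reporter; potency of inhibitors that lower reporter luminescence.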 Type of test: functional.
A short description of test [4]: COV434 cell viability loss – plate reader, dry powder, SA7, cytotoxicity control for PAX8 inhibitor project, dose response (AID 743145). The test is classed as functional, cell-based.
Test [5] can be described thus: OVCAR4 cell viability loss – plate reader, dry powder, SA11, cytotoxicity control for PAX8 inhibitor project, dose response (AID 743150). Type of test: functional, cell-based. As to conditions: OVCAR-4.
The nature of test [6]: inhibitors acting on PAX2 in cells – cell-based, plate reader, dry powder samples, selectivity assay for PAX8 inhibitor project, dose response (AID 743048).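 Note: HEK293 cells carrying a WT1 promoter luciferase reporter driven by expressed Pax2; potency is for inhibition of Pax2 driven reporter signal.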 The test is classed as functional.
The nature of test [7]: general cell-killing toxicity readout – plate reader, dry powder samples, cytotoxicity control for PAX8 inhibitor project, dose response (AID 743021). Type of test: functional, cell-based.
The nature of test [8]: OVCAR8 cell viability loss – plate reader, dry powder samples, PAX8 project, dose response (AID 743197). Type of test: functional, cell-based. The note with it: OVCAR-8.
Test [9] can be described thus: OVCAR-3 cell viability loss – plate reader, dry powder samples, PAX8 inhibitor project, dose response (AID 743044). The test is classed as functional, cell-based.
Test [10] can be described thus: CMV-driven luciferase expression suppression in HEK293 – cell-based, luminescence, dry powder, counter-screen for Pax8 inhibitor project, dose response (AID 743020). The test is classed as functional. (In general: The purpose of a counterscreen is to sort out artefacts and off-target activity.)
The target of another test is Paired box protein Pax-8 (Homo sapiens, UniProt Q06710). Kind of test: PAX8 transcriptional activity inhibition in RMG-I – RMG-I cells, luciferase, cherry-pick, dose response (AID 687027).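 Note: luciferase reporter driven by Pax8 target thyroperoxidase promoter measured by SteadyGlo luminescence.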 Type of test: functional, cell-based.
Test [11] can be described thus: toxicity to human hepatoma HepG2 cells – cell-based, cherry-picked samples, cytotoxicity control, dose response (AID 1159577). The test is classed as functional.
A short description of test [12]: A2780 cell killing – plate reader, dry powder samples, cytotoxicity control, dose response (AID 743046). Type of test: functional, cell-based.
Test [13] can be described thus: toxicity toward immortalized ovarian surface epithelium – cell-based, plate reader, dry powder samples, cytotoxicity control for PAX8 inhibitor project, dose response (AID 743045). Type of test: functional.
Test [14] is described as follows: IGROV1 cell killing – plate reader, dry powder samples, PAX8 inhibitor project, dose response (AID 743043). The test is classed as functional, cell-based. The note with it: IGROV-1.
Test [15] in a line: P. falciparum Dd2 growth inhibitors, dose response, SYBR Green, cherry-picked samples (AID 1159567). The test is classed as functional, cell-based.
Test [16] can be described thus: reduced cellular PGC1a acetyl-lysine signal – cell-based, cherry-picked samples, dose response (AID 720514).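 Note: potency may reflect raised or lowered acetylation signal.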 The test is classed as functional.
The nature of test [17]: Late stage assay provider results from the probe development effort to identify inhibitors of the Plasmodium falciparum M18 Aspartyl Aminopeptidase (M18AAP): radiolabel-based cell-based dose response assay to identify compounds that inhibit P. falciparum growth in RBCs, Set 2.. Type of test: functional.
Test [18] is described as follows: viability loss in A549 lung cells – cell-based, 24 h, CellTiter-Glo luminescence, cherry-picks, cytotoxicity control, dose response (AID 1053115). Type of test: functional. As to conditions: A549, 24 h. (ATP-based viability assays read luminescence as a measure of living cells.)
In test [19] the target is Metabotropic glutamate receptor 5 (Rattus norvegicus, UniProt P31424). Kind of test: Identification of a glycine sulfonamide based non-MPEP site positive allosteric potentiator (PAM) of mGlu5 (calcium_assay). The test is classed as functional.
For the next test, the target named is Estrogen receptor beta (Homo sapiens, UniProt Q92731).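 Note: recombinant ER-beta bound to coactivator SRC1 peptide in presence of estradiol agonist; inhibitors block coactivator peptide binding and lower the FRET signal.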
Test [20] is described as follows: IC50 of Artemis nuclease activity blockers – biochemical, fluorescence intensity, dose response (AID 720701).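 Note: Artemis endonuclease enzyme.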 The test is classed as functional.
Test [21] has as its target Induced myeloid leukemia cell differentiation protein Mcl-1 (Homo sapiens, UniProt Q07820). The test is classed as functional.
Test [22] has as its target T1, Carboxy-terminal domain RNA polymerase II polypeptide A small phosphatase 1 (Homo sapiens, UniProt Q9GZU7).
T1 sequence (Q9GZU7 whole entry): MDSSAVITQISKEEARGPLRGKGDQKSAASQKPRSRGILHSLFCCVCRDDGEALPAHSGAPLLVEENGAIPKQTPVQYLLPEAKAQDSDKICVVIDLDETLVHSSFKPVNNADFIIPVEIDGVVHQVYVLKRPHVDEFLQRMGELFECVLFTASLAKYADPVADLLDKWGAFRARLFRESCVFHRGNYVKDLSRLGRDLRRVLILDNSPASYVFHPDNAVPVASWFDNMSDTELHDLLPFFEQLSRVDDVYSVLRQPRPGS
Put plainly: CTDSP1 inhibitors, concentration-response, biochemical, absorbance readout, ultra-high-throughput screen actives (AID 540297). Type of test: functional.

Active and inactive are the calls of the source. A value given as a limit tells only on which side of the number the result lay.

Chain of Paired box protein Pax-8 (Q06710 whole entry): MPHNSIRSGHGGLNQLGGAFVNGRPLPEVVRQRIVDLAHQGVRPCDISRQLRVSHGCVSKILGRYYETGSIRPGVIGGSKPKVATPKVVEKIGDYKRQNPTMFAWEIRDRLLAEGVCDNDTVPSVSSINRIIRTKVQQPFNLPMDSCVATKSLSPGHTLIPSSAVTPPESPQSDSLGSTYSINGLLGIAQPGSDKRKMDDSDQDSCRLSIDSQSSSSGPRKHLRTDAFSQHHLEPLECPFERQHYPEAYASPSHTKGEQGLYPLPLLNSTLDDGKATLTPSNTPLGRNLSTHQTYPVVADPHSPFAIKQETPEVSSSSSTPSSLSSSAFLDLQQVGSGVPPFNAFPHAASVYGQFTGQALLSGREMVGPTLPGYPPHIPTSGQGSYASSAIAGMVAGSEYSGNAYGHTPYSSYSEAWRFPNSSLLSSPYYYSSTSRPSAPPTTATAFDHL
Chain of ATP-dependent translocase ABCB1 (P08183 whole entry): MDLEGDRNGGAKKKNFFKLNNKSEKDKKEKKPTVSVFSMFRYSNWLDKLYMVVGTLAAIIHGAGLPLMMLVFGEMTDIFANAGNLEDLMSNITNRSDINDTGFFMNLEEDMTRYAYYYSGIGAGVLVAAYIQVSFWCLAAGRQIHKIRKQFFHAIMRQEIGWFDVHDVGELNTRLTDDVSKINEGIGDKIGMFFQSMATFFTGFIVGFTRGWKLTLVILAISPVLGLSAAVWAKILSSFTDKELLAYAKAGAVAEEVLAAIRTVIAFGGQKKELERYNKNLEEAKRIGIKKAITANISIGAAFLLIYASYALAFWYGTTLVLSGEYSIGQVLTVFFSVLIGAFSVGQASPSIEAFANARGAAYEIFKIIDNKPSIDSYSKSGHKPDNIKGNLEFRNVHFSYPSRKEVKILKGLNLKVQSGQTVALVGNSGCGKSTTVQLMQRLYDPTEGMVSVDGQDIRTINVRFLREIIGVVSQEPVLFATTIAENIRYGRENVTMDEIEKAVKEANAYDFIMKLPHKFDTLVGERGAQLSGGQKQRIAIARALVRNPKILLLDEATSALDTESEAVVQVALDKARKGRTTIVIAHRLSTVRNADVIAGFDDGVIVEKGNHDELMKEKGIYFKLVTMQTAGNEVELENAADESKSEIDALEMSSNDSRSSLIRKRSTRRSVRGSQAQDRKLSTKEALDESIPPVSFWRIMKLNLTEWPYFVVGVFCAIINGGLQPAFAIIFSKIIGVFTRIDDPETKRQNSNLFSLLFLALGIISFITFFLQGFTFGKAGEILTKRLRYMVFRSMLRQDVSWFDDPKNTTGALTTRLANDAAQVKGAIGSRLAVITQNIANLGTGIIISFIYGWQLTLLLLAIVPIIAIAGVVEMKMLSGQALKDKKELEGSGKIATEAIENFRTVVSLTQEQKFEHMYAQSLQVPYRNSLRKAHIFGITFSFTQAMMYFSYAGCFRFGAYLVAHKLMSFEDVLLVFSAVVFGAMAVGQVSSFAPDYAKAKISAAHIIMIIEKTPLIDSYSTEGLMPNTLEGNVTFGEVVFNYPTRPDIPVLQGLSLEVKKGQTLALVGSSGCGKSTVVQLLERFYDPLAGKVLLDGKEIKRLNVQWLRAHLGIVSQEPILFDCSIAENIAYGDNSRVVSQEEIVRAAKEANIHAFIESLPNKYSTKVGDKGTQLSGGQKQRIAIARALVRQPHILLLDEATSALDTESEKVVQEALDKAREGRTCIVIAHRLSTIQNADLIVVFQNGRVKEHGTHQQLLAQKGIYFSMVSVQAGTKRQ
Chain of Induced myeloid leukemia cell differentiation protein Mcl-1 (Q07820 whole entry, the tested form may be a part): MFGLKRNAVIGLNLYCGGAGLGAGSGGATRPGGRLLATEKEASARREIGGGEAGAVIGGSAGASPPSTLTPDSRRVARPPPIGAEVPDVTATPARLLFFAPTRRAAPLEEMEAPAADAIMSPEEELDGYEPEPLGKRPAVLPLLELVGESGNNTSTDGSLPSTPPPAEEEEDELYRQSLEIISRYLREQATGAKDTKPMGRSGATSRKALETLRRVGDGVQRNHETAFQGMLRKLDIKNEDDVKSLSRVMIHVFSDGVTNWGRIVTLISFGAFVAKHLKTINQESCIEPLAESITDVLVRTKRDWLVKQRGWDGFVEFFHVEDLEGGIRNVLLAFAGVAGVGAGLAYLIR
Chain of Estrogen receptor beta (Q92731 whole entry): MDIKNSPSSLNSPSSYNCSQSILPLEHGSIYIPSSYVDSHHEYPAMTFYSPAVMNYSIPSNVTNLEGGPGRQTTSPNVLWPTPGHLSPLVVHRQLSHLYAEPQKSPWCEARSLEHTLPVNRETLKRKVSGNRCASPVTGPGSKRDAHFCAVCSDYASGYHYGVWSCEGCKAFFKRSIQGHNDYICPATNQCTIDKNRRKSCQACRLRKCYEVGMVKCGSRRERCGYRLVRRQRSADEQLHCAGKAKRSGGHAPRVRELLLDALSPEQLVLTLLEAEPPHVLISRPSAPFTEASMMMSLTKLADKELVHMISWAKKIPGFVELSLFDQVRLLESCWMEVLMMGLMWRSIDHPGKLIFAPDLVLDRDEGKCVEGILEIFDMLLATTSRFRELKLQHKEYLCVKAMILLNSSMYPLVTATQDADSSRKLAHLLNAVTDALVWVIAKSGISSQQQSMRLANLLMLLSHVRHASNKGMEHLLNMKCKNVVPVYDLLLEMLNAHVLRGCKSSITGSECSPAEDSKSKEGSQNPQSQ
Chain of Metabotropic glutamate receptor 5 (P31424 whole entry): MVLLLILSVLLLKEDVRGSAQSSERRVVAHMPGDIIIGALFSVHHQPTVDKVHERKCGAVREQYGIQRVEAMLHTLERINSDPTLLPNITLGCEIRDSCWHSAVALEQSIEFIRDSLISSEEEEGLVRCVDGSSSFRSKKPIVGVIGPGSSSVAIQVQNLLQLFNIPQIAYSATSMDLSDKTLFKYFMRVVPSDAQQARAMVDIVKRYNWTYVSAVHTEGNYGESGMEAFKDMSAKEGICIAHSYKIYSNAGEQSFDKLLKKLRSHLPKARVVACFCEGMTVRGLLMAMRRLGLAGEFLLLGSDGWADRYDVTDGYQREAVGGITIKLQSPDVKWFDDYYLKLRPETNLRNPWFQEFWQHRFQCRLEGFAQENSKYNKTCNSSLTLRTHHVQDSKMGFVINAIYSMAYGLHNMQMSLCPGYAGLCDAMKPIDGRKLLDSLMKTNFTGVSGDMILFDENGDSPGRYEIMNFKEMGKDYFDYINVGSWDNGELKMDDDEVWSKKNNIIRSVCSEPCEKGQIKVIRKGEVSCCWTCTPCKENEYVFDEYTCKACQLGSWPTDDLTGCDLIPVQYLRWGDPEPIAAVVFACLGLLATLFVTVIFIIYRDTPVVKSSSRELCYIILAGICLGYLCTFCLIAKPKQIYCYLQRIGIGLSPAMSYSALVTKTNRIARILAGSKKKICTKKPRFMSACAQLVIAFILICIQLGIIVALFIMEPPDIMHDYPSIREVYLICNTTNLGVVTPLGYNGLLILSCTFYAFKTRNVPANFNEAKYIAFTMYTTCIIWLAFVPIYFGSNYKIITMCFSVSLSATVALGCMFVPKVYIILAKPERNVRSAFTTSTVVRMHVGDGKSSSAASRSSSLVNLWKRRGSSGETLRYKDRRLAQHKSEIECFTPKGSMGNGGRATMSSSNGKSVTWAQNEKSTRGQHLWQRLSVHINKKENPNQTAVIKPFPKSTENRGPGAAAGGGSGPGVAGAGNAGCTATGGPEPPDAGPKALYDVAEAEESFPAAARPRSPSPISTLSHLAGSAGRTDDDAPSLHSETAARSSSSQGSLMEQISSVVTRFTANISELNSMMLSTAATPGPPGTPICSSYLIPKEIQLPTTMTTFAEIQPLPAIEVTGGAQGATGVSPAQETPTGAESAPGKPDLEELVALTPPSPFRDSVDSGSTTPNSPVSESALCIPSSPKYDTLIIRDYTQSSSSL

Take `Cc1ccc(-c2cc3nc(-c4ccco4)cc(N4CCN(Cc5ccoc5)CC4)n3n2)cc1`: the 50% effective concentration (EC50) (as a rule, the concentration giving half of the maximal effect) in [1] was 0.01411 µM.
`Cc1ccc(S(=O)(=O)Nc2ccc3c(c2)C(=O)N([C@H](C)CO)C[C@@H](C)[C@H](CN(C)Cc2ccc(C(F)(F)F)cc2)OCCCC[C@H](C)O3)cc1`: the AC50 (in general, the concentration giving half of the maximal activity seen) in test [2] is 39.7 µM (active); in test [3], 22.1 µM (active); in test [4], 35.5 µM (active); in [5], 44.2 µM (active); in [6], 22 µM (active); in [7], 31 µM (active). For the same compound, the AC50 in test [8] is 14.9 µM (active); in [9], 27 µM (active); in test [10], 29.4 µM (active); at Paired box protein Pax-8, 3.93 µM (active).
Turning to `COc1ccc(C#Cc2ccc([C@H]3[C@@H](CO)N4CCCCN(C(=O)Nc5cccc(F)c5)C[C@H]34)cc2)cc1`, the half-maximal activity concentration (AC50) in test [7] is 32.1 µM (active); in test [8], > 70 µM (inactive); in test [11], 7.31 µM (active); in test [12] it was 12.2 µM (active); in [9], 10 µM (active); in test [13], 32.3 µM (active). Further, the results for the half-maximal activity concentration (AC50) (in [14]; in test [15]; on Paired box protein Pax-8) were 21.1 µM (active), 1.28 µM (active) and 10.9 µM (active), respectively.
For the compound `COc1cc(CN2C[C@@H]3N[C@H](C2)[C@@H]3c2ccc(-c3cccc(OC)c3)cc2)cc(OC)c1`, the AC50 in test [16] is 9.18 µM (active).
As for `O=c1ccn(CCNc2c3ccccc3nc3ccccc23)cc1OCc1ccccc1`, the IC50 (usually the midpoint of a concentration-inhibition curve) in [17] is 4.7 µM (active).
In the case of `OC[C@@H]1Nc2ccc(-c3cccc(F)c3)cc2[C@@H]2[C@H]1CCN2Cc1ccc(F)cc1`, the AC50 in [18] was 52 µM (active); in [11], 17.8 µM (active); in test [15], 5.68 µM (active).
`CC(C(=O)Nc1cc(F)cc(C#N)c1)N(c1ccccc1Cl)S(C)(=O)=O` (stereo not given): in test [19], the concentration for a half-maximal effect (EC50) came out at 5.45 µM.
Consider `Cc1nc2c(c(=O)n1CCC1=CCCCC1)c1nc3ccccc3nc1n2/N=C/c1ccco1`, for which the 50% inhibitory concentration (IC50) on Estrogen receptor beta is > 50 µM (not active); in test [20], 18.5 µM (active); in test [21], 4.9 µM (active); in [22], 10.1 µM (active).
